Measured values from patent publication US12297194B2, “N2-phenylpyrimidine-2,4-diamine compounds, and preparation methods and methods of use thereof” (BRIDGE BIOTHERAPEUTICS, INC., priority 2021, dated 2025).

Assays:
Type in all cases: cell-based, murine
[1] = molecular target: Ba/F3 EGFR Del19/T790M mutants (Homo sapiens, UniProt P00533, T790M, cells depend on it, form not given); assay: CellTiter-Glo cell viability, Ba/F3 EGFR Del19/T790M cells; conditions: 72 hours, read-out: Ba/F3 EGFR mutant cell (IC50, nM) D/T
Summary of the method: (§1)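 Ba/F3 cells expressing wild-type or mutant EGFR were seeded at 2500 cells/well and dosed 24 h later with compound at 0–2000 nM (10 points). After 72 h, viability was read by CellTiter-Glo luminescence, and IC50 values came from curve fitting.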

[2] = molecular target: Ba/F3 EGFR L858R/T790M/C797S mutants (Homo sapiens, UniProt P00533, T790M/C797S/L858R, cells depend on it); assay: CellTiter-Glo cell viability, Ba/F3 EGFR L858R/T790M/C797S cells; conditions: 72 hours, read-out: Ba/F3 EGFR mutant cell (IC50, nM) L/T/C
Summary of the method: as §1

Ba/F3 EGFR Wild-type = Ba/F3 EGFR Wild-type (Homo sapiens, UniProt P00533); assay: CellTiter-Glo cell viability, Ba/F3 EGFR wild-type cells; conditions: 72 hours, read-out: Ba/F3 EGFR mutant cell (IC50, nM) WT
Summary of the method: as §1

[3] = molecular target: Ba/F3 EGFR Del19/T790M/C797S mutants (Homo sapiens, UniProt P00533, T790M/C797S, cells depend on it, form not given); assay: CellTiter-Glo cell viability, Ba/F3 EGFR Del19/T790M/C797S cells; conditions: 72 hours, read-out: Ba/F3 EGFR mutant cell (IC50, nM) D/T/C
Summary of the method: as §1

[4] = molecular target: Ba/F3 EGFR Del19/C797S mutants (Homo sapiens, UniProt P00533, C797S, cells depend on it, form not given); assay: CellTiter-Glo cell viability, Ba/F3 EGFR Del19/C797S cells; conditions: 72 hours, read-out: Ba/F3 EGFR mutant cell (IC50, nM) D/C
Summary of the method: as §1

[5] = molecular target: Ba/F3 EGFR L858R/C797S mutants (Homo sapiens, UniProt P00533, C797S/L858R, cells depend on it); assay: CellTiter-Glo cell viability, Ba/F3 EGFR L858R/C797S cells; conditions: 72 hours, read-out: Ba/F3 EGFR mutant cell (IC50, nM) L/C
Summary of the method: as §1

Sequence of Ba/F3 EGFR Del19/T790M/C797S mutants (P00533 with tags, fused parts or gaps DEL746-750/T790M/C797S, form open): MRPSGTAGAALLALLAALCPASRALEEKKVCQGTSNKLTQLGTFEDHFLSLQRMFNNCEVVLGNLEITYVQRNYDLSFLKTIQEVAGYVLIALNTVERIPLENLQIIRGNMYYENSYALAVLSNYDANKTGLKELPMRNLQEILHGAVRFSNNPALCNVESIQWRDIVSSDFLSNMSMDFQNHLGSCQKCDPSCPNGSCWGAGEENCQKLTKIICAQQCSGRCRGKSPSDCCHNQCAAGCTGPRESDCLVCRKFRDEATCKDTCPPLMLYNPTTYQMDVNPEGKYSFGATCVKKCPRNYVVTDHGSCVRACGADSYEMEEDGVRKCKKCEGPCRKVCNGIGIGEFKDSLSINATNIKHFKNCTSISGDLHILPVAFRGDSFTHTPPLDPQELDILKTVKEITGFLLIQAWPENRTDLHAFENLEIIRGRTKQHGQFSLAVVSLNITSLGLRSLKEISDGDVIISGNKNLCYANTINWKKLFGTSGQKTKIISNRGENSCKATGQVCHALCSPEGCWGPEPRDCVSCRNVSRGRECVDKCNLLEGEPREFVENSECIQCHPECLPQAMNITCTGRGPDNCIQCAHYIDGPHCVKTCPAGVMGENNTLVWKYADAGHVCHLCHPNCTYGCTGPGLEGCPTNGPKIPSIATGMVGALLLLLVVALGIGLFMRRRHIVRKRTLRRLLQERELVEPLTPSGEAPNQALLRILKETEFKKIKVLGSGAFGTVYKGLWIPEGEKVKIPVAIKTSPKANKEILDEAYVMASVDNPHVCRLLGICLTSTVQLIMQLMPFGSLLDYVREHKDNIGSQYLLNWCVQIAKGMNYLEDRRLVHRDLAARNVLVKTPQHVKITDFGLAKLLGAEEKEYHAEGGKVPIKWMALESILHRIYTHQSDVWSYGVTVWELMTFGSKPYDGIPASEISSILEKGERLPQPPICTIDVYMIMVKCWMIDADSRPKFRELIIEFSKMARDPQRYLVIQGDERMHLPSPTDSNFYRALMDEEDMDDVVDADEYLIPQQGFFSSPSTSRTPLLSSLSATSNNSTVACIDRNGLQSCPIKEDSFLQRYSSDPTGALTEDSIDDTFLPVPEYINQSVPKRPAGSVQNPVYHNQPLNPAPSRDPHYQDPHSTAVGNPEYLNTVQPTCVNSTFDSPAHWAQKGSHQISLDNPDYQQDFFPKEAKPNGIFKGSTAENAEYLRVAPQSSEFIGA
Sequence of Ba/F3 EGFR L858R/C797S mutants (P00533 whole entry C797S/L858R): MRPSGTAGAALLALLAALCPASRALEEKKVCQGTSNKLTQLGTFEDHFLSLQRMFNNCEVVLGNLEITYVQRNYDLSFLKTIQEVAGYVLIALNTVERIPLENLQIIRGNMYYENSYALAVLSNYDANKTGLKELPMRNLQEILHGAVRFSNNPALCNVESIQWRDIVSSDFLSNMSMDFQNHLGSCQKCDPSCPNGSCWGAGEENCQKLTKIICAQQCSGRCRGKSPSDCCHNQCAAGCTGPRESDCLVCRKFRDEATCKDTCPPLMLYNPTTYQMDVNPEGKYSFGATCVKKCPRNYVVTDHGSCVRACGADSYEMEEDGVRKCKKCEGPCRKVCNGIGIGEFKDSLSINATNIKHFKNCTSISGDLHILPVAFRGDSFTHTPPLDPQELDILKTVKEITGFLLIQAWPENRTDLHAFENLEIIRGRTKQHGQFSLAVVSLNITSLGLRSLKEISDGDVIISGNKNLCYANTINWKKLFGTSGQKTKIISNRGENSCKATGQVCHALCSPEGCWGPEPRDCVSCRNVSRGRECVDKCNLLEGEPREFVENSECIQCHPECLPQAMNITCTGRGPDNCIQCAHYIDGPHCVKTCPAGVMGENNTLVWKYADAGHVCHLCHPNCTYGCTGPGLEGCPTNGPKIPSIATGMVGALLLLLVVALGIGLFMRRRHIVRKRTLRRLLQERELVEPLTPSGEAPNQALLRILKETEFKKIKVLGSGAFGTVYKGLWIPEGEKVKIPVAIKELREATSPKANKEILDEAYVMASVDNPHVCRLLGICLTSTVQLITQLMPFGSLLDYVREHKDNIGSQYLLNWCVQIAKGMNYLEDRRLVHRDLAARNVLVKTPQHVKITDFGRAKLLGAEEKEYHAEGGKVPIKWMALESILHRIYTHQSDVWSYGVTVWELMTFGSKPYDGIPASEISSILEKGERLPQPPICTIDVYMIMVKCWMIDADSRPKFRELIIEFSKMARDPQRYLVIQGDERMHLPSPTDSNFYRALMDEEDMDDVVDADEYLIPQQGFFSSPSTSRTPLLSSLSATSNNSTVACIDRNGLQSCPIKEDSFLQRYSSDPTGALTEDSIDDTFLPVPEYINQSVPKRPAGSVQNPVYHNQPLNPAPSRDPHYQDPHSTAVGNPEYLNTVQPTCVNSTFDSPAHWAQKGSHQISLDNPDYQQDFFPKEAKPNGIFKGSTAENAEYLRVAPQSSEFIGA
Sequence of Ba/F3 EGFR Wild-type (P00533 whole entry, change not shown): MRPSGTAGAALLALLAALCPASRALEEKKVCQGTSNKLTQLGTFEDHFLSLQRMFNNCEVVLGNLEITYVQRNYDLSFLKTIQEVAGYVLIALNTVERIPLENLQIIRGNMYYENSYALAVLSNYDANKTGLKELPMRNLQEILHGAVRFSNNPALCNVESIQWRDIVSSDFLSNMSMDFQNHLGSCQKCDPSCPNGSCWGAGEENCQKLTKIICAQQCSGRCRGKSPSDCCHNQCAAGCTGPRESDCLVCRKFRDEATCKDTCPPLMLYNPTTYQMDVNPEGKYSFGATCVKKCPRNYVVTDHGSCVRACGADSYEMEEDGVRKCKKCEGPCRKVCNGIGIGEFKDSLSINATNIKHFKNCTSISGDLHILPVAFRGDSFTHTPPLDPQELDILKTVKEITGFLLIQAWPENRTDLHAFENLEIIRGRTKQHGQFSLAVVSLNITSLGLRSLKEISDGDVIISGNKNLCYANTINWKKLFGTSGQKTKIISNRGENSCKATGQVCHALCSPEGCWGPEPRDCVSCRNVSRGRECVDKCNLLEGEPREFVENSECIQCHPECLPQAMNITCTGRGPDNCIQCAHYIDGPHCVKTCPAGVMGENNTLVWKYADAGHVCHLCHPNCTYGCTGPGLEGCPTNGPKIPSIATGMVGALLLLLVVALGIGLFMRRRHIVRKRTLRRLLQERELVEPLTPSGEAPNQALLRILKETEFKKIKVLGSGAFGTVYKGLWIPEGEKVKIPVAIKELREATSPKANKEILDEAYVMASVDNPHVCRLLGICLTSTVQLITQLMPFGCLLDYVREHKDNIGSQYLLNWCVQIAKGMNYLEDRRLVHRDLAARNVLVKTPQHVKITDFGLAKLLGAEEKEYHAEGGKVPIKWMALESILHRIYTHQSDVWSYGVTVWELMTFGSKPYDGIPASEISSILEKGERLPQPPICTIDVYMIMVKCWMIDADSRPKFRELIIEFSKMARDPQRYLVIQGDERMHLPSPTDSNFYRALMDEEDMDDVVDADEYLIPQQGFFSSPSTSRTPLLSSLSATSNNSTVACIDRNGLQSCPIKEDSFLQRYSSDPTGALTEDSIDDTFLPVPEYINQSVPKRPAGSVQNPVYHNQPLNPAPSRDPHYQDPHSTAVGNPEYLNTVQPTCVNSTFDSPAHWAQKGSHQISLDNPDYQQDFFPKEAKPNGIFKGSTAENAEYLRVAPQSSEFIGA
Sequence of Ba/F3 EGFR L858R/T790M/C797S mutants (P00533 whole entry T790M/C797S/L858R): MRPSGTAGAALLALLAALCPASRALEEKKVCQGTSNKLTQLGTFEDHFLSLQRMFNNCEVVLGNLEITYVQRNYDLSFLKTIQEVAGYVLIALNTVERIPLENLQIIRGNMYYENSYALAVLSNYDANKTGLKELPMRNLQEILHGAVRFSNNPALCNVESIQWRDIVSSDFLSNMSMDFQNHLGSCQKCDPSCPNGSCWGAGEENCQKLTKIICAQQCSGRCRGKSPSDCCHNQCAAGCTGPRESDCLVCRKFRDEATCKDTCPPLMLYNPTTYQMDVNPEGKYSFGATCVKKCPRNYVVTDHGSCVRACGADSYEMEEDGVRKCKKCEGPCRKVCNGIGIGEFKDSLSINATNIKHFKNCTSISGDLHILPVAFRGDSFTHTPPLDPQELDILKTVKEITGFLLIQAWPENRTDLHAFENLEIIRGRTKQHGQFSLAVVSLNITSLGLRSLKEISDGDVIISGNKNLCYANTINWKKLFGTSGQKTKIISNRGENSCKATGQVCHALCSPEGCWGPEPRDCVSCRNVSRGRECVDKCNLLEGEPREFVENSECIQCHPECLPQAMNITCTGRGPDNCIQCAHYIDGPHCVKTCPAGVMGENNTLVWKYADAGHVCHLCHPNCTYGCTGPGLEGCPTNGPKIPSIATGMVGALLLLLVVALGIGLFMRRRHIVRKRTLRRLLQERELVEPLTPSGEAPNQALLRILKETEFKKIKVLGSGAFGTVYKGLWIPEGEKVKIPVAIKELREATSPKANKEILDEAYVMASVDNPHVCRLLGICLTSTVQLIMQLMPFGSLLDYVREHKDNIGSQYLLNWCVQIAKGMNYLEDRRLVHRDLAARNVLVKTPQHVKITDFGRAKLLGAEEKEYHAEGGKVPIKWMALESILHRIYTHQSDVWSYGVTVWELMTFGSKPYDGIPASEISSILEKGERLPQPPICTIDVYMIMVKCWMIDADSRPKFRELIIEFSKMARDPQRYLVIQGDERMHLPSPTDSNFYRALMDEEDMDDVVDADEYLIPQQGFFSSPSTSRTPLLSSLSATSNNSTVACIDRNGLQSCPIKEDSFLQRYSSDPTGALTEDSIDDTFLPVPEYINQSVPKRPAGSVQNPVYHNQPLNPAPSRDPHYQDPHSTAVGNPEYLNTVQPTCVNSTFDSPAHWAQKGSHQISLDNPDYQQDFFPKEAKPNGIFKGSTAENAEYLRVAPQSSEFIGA

Compound	GI50 [1]	GI50 [2]	GI50 (Ba/F3 EGFR Wild-type)	GI50 [3]	GI50 [4]	GI50 [5]
COc1cc(C2CCNCC2)ccc1Nc1ncc(Br)c(Nc2ccc3nccnc3c2NS(C)(=O)=O)n1 [Example B18, N-(6-((5-bromo-2-((2-methoxy-4-(piperidin-4-yl)phenyl)amino)pyrimidin-4-yl)amino)quinoxalin-5-yl)methanesulfonamide]	598 nM	1440 nM	> 2000 nM	818 nM	725 nM	1020 nM
CCc1cc(Nc2ncc(Br)c(N(C)c3ccc4nccnc4c3N(C)S(C)(=O)=O)n2)c(OC)cc1N1CCC(N(C)C)CC1 [Example B19, N-(6-((5-bromo-2-((4-(4-(dimethylamino)piperidin-1-yl)-5-ethyl-2-methoxyphenyl)amino)pyrimidin-4-yl)(methyl)amino)quinoxalin-5-yl)-N-methylmethane sulfonamide]	20 nM	82 nM	1410 nM	25 nM	36 nM	182 nM
COc1cc(C2CCNCC2)ccc1Nc1ncc(C2CC2)c(Nc2ccc3nccnc3c2NS(C)(=O)=O)n1 [Example B20, N-(6-((5-cyclopropyl-2-((2-methoxy-4-(piperidin-4-yl)phenyl)amino)pyrimidin-4-yl)amino)quinoxalin-5-yl)methanesulfonamide]	1810 nM	1850 nM	> 2000 nM	758 nM	697 nM	1140 nM
COc1cc(C2CCNCC2)c(F)cc1Nc1ncc(Cl)c(Nc2ccc3nccnc3c2NS(C)(=O)=O)n1 [Example B21, N-(6-((5-chloro-2-((5-fluoro-2-methoxy-4-(piperidin-4-yl)phenyl)amino)pyrimidin-4-yl)amino)quinoxalin-5-yl)methanesulfonamide]	469 nM	693 nM	1730 nM	448 nM	342 nM	500 nM
COc1cc(C2CCN(C)CC2)ccc1Nc1ncc(Cl)c(Nc2ccc3nccnc3c2NS(C)(=O)=O)n1 [Example B23, N-(6-((5-chloro-2-((2-methoxy-4-(1-methylpiperidin-4-yl)phenyl)amino)pyrimidin-4-yl)amino)quinoxalin-5-yl)methanesulfonamide]	154 nM	354 nM	868 nM	112 nM	100 nM	302 nM
CCCc1cc(Nc2ncc(Br)c(Nc3ccc4nccnc4c3N(C)S(C)(=O)=O)n2)c(OC)cc1N1CCC(N(C)C)CC1 [Example B24, N-(6-((5-bromo-2-((4-(4-(dimethylamino)piperidin-1-yl)-2-methoxy-5-propylphenyl)amino)pyrimidin-4-yl)amino)quinoxalin-5-yl)-N-methylmethanesulfonamide]	23 nM	65 nM	908 nM	20 nM	17 nM	185 nM
CCc1cc(Nc2ncc(Cl)c(Nc3ccc4nccnc4c3NS(C)(=O)=O)n2)c(OC)cc1N1CC2CCC1CN2C(C)C (stereo not drawn) [Example B25, N-(6-((5-chloro-2-((5-ethyl-4-(5-isopropyl-2,5-diazabicyclo[2.2.2]octan-2-yl)-2-methoxyphenyl)amino)pyrimidin-4-yl)amino) 105 quinoxaline-5-yl)methanesulfonamide]	26 nM	83 nM	829 nM	22 nM	16 nM	93 nM
CCc1cc(Nc2ncc(Cl)c(Nc3ccc4nccnc4c3NS(C)(=O)=O)n2)c(OC)cc1N1CC2(C1)CN(C(C)C)C2 [Example B26, N-(6-((5-chloro-2-((5-ethyl-4-(6-isopropyl-2,6-diazaspiro[3.3]heptan-2-yl)-2-methoxyphenyl)amino)pyrimidin-4-yl)amino)quinoxalin-5-yl)methanesulfonamide]	38 nM	61 nM	528 nM	9 nM	42 nM	59 nM
CCc1cc(Nc2ncc(Cl)c(Nc3ccc4nccnc4c3N(C)S(C)(=O)=O)n2)c(OC)cc1N1CC2(C1)CN(C(C)C)C2 [Example B27, N-(6-((5-chloro-2-((5-ethyl-4-(6-isopropyl-2,6-diazaspiro[3.3]heptan-2-yl)-2-methoxyphenyl)amino)pyrimidin-4-yl)amino)quinoxalin-5-yl)-N-methylmethanesulfonamide]	25 nM	40 nM	359 nM	5 nM	18 nM	35 nM
CCc1cc(Nc2ncc(Cl)c(Nc3ccc4nccnc4c3N(C)S(C)(=O)=O)n2)c(OC)cc1N1CC2CCC1CN2C(C)C (stereo not drawn) [Example B28, N—N-(6-((5-chloro-2-((5-ethyl-4-(5-isopropyl-2,5-diazabicyclo[2.2.2]octan-2-yl)-2-methoxyphenyl)amino)pyrimidin-4-yl)amino)quinoxalin-5-yl)-N-methylmethanesulfonamide]	23 nM	50 nM	332 nM	5 nM	14 nM	26 nM
CCc1cc(Nc2ncc(Br)c(Nc3ccc4nccnc4c3N(C)S(C)(=O)=O)n2)c(OC)cc1N1CC2(C1)CN(C(C)C)C2 [Example B29, N-(6-((5-bromo-2-((5-ethyl-4-(6-isopropyl-2,6-diazaspiro[3.3]heptan-2-yl)-2-methoxyphenyl)amino)pyrimidin-4-yl)amino)quinoxalin-5-yl)-N-methylmethanesulfonamide]	9 nM	68 nM	317 nM	2 nM	14 nM	27 nM
CCc1cc(Nc2ncc(Br)c(Nc3ccc4nccnc4c3N(C)S(C)(=O)=O)n2)c(OC)cc1N1CC2CCC1CN2C(C)C (stereo not drawn) [Example B30, N-(6-((5-bromo-2-((5-ethyl-4-(5-isopropyl-2,5-diazabicyclo[2.2.2]octan-2-yl)-2-methoxyphenyl)amino)pyrimidin-4-yl)amino)quinoxalin-5-yl)-N-methylmethanesulfonamide]	7 nM	71 nM	233 nM	2 nM	11 nM	23 nM
CCc1cc(Nc2ncc(Br)c(Nc3ccc4nccnc4c3N(C)S(C)(=O)=O)n2)c(OC)cc1N1CC2(CCN2C(C)C)C1 [Example B31, N-(6-((5-bromo-2-((5-ethyl-4-(1-isopropyl-1,6-diazaspiro[3.3]heptan-6-yl)-2-methoxyphenyl)amino)pyrimidin-4-yl)amino)quinoxalin-5-yl)-N-methylmethanesulfonamide]	8 nM	43 nM	482 nM	6 nM	15 nM	43 nM
CCc1cc(Nc2ncc(Br)c(Nc3ccc4nccnc4c3N(C)S(C)(=O)=O)n2)c(OC(C)C)cc1C1CCN(C)CC1 [Example B32, N-(6-((5-bromo-2-((5-ethyl-2-isopropoxy-4-(1-methylpiperidin-4-yl)phenyl)amino)pyrimidin-4-yl)amino)quinoxalin-5-yl)-N-methylmethanesulfonamide]	154 nM	83 nM	851 nM	29 nM	172 nM	200 nM
COc1cc(N2CCC(N3CCN(C)CC3)CC2)c(C)cc1Nc1ncc(Br)c(Nc2cccc(OC)c2NS(C)(=O)=O)n1 [Example C1, N-(2-((5-bromo-2-((2-methoxy-5-methyl-4-(4-(4-methylpiperazin-1-yl)piperidin-1-yl)phenyl)amino)pyrimidin-4-yl)amino)-6-methoxyphenyl)methanesulfonamide]	6 nM	12 nM	408 nM	13 nM	18 nM	63 nM
COc1ccc(Nc2nc(Nc3cc(C)c(N4CCC(N5CCN(C)CC5)CC4)cc3OC)ncc2Br)c(NS(C)(=O)=O)c1 [Example C2, N-(2-((5-bromo-2-((2-methoxy-5-methyl-4-(4-(4-methylpiperazin-1-yl)piperidin-1-yl)phenyl)amino)pyrimidin-4-yl)amino)-5-methoxyphenyl)methanesulfonamide]	3 nM	18 nM	385 nM	9 nM	13 nM	32 nM
COc1cc(N2CCC(N(C)C)CC2)c(C)cc1Nc1ncc(Br)c(Nc2cccc(OC)c2NS(C)(=O)=O)n1 [Example C3, N-(2-((5-bromo-2-((4-(4-(dimethylamino)piperidin-1-yl)-2-methoxy-5-methylphenyl)amino)pyrimidin-4-yl)amino)-6-methoxyphenyl)methanesulfonamide]	17 nM	23 nM	288 nM	92 nM	60 nM	113 nM
